According to patent US11366101B1, “Ex vivo systems and methods for determining the effect of a drug or other agent on a tissue” (Elephas Biosciences Corporation, priority 2020, dated 2022):

Key:
[1] = test system: live tumor fragment; assay: Diffusion of a small molecule drug and an antibody into a live tumor fragment (fluorescence imaging); assay type: in vitro ADME; conditions: live tumor fragment cultured at 37° C., time after addition
Method: Notable was gradual appearance of doxorubicin-characteristic fluorescence first in the periphery of tissue fragment at 15 minutes followed by full-thickness staining of the entire fragment area at 2 hours. […] Notable is plateau staining within about 5 h. As noted by this experiment, both small molecule drugs and large antibodies diffused into the live tissue fragments.

[2] = test system: EMT6 tumor fragments; assay: Label-free MP-FLIM of NAD(P)H fluorescence lifetime in cultured tumor fragments; assay type: cell-based, mouse; conditions: 24 hours of exposure vs 0 h, p<0.002
Method: Live EMT6 tumors were cut into tissue fragments that were then sorted and cultured in glass-bottomed multi-well plates. To induce cancer cell death, one group was treated with the multi-kinase inhibitor, staurosporine (STS), and the control group was treated with the vehicle (Veh). Before (0 h) and after treatment (24 h), the structure and metabolic status of tumor fragments were imaged based on the intrinsically fluorescent metabolic co-factor nicotinamide dinucleotides (NAD(P)H) fluorescence intensity and lifetime using MP-FLIM by time-correlated single photon counting. The data was analyzed by fitting fluorescence decay curves with dual exponents. […] Each dot represents one fragment.

[3] = test system: EMT6 tumor fragments; assay: NAD(P)H intensity multiphoton microscopy versus propidium iodide viability ground truth in cultured tumor fragments; assay type: cell-based, mouse; conditions: after 24 h, treated versus untreated
Method: Live EMT6 tumors were cut into tissue fragments that were then sorted and cultured in glass-bottomed multi-well plates. To induce cancer cell death, one group was treated with the multi-kinase inhibitor, staurosporine (STS), and the control group was untreated. After 24 h, the structure and metabolic status of tumor fragments were imaged based on the intrinsically fluorescent metabolic co-factor nicotinamide dinucleotides (NAD(P)H) fluorescence intensity using multiphoton microscopy with 720 nm excitation. […] For structural reference, the second harmonic generation was also imaged (blue).

[4] = test system: human live tumor fragments; assay: Supernatant cytokines of live tumor fragments by LEGENDPlex bead immunoassay, human; assay type: cell-based; conditions: cultured 48 or 72 h; for presence of IFN-γ and cytokines associated with immune activation relative to the untreated control: human samples
Method: (§1) Human tumor excisions were obtained from the University of Wisconsin (Institutional Review Board (IRB) approved) and CT26 tumors were grown in mice. Tumor excisions were cut into […] live tumor fragments of 100-300 μm thickness, sorted into multi-well plates, and cultured for 48 or 72 h in the presence or absence of anti-PD1 (nivolumab or mouse equivalent), anti-PD1 plus anti-CTLA4 (ipilimumab or mouse equivalent), or concanavalin A (ConA) as a positive control. Cell viability was ascertained by ATP luminescence assay or flow cytometry (not shown). Supernatant cytokines were measured using LEGENDPlex bead immunoassay. […] The presence of cytokines was greater in wells with 10 fragments than in wells with 3 fragments, indicating suitability of culture conditions.

[5] = test system: CT26 tumor fragments; assay: Supernatant cytokines of live tumor fragments by LEGENDPlex bead immunoassay, mouse; assay type: cell-based; conditions: mouse specimens, cultured 48 or 72 h
Method: as §1

Molecule: COc1cccc2c1C(=O)c1c(O)c3c(c(O)c1C2=O)C[C@@](O)(C(=O)CO)C[C@@H]3O[C@H]1C[C@H](N)[C@H](O)[C@H](C)O1 [doxorubicin]
- appearance of doxorubicin-characteristic fluorescence in the periphery of tissue fragment [1]: 15 min
- full-thickness staining of the entire fragment area [1]: 2 h

Molecule: CN[C@@H]1C[C@H]2O[C@@](C)([C@@H]1OC)n1c3ccccc3c3c4c(c5c6ccccc6n2c5c31)C(=O)NC4 [staurosporine]
- NAD(P)H short lifetime component (a1) [2]: concomitant decrease
- whole fragment NAD(P)H mean lifetime (tm) [2]: statistically significant increase
- PI-stained nuclei (dead cells) [3]: increased numbers of PI-stained nuclei
- NAD(P)H intensity ([3]; 720 nm excitation): loss of NAD(P)H intensity

Molecule: anti-PD1: immunotherapy drug anti-PD1 (nivolumab or mouse equivalent)
- cytokine panel upregulation, fold increase relative to untreated control ([4]; human LTFs): cytokine panel upregulation was observed
- presence of IFN-γ and cytokines associated with immune activation relative to the untreated control [4]: greater presence of IFN-γ and 16 cytokines
- presence of IFN-γ and cytokines associated with immune activation, fold increase in relation to the untreated control [5]: greater presence of IFN-γ and 10 cytokines

Molecule: concanavalin A [ConA]
- presence of IFN-γ and cytokines associated with immune activation relative to the untreated control [4]: greater presence of IFN-γ and 16 cytokines
